Molecular target: T1, PPARδ (Mus musculus, UniProt P35396)
T1 construct: from tissue; host or cells: heart and skeletal muscle (quadriceps) of PPARα knock-out mice
T1 sequence (P35396 1-440): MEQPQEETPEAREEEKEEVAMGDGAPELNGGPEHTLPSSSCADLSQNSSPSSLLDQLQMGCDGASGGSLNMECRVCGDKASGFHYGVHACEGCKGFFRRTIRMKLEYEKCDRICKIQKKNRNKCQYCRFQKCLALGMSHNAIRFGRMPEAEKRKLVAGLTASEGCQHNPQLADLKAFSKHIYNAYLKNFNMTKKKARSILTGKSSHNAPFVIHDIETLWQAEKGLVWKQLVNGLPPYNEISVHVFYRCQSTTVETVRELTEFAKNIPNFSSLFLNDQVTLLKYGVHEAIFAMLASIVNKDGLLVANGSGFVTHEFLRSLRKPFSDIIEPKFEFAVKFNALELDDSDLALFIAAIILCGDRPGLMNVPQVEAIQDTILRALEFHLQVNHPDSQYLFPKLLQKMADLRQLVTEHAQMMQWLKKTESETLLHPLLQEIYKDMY
Assay: In vivo evaluation of PPARδ properties (target gene expression, RT-PCR)
Conditions: PPARα knock-out mouse; 150 mg/kg/day for 3 days
Protocol: The PPARα knock-out mouse model was used to characterize in vivo PPARδ activation. Animals were treated for 3 days at the dose of 150 mg/kg/day. Total RNA was isolated from heart and skeletal muscle (quadriceps). Messenger RNAs were quantified by quantitative RT-PCR and expression levels were normalized using 18S gene as reference.
The […] knock-out mouse model was used to characterize in vivo PPARδ activation. Animals were treated for 3 days at the dose of 150 mg/kg/day. Total RNA was isolated from heart and skeletal muscle (quadriceps). Messenger RNAs were quantified by quantitative RT-PCR: total RNA was extracted from fragments of skeletal muscle or heart, using the RNeasy® Fibrous Tissue kit (Qiagen), according to the manufacturer's instructions. Reverse transcription was performed on 1 μg of total RNA (quantified using the Ribogreen RNA quantification kit (Molecular Probes)) by action of 1 μl of MMLV-RT enzyme (Sigma) during 1 hour at 37° C. in a total volume of 20 μl. The reaction conditions were 1× buffer (Sigma), 1.5 mM DTT, 0.18 mM dNTPs (Promega), 200 ng pdN6 (Amersham), 30 U RNase inhibitor (Sigma). Quantitative PCR was then carried out using the MyiQ Single-Color Real-Time PCR Detection System (Biorad). Briefly PCR reactions were performed in 96 well plates on 5 μl of diluted reverse transcription mix using the iQ SYBR Green Supermix kit. The reaction conditions were: 25 μl of volume reaction, 3 mM of MgCl2, and 0.5 μl of each reverse and forward primer solutions (10 pMol), Tm of 55° C. The primers pairs are specific for each target genes. […]
The quantity of fluorescence emitted is directly proportional to the quantity of complementary DNA present at the start of the reaction and amplified during the PCR. The relative levels of expression were determined using the standard curve for each transcript. […] The induction factor, i.e. the ratio between the relative signal induced by the compound according to the invention and the average of the values relating to the control group, was then calculated for each sample. […]

Cc1cc(/C=C/C(=O)c2ccc(Br)cc2)cc(C)c1OC(C)(C)C(=O)O [Compound 41, 1-[4-bromophenyl]-3-[3,5-dimethyl-4-carboxydimethylmethyloxyphenyl]prop-2-en-1-one]
Induction: PDK4 expression in the heart | UCP2 expression in the skeletal muscle | UCP3 expression in the heart

— patent US7566737B2 (Genfit, priority 2002, dated 2009)
